Data published in the NIST ThermoML archive (doi:10.1016/j.jct.2015.05.013).

Assay: cn = amount concentration of the nth substance listed, in mol/dm3
Settings: 298.15 K, 101.3 kPa, Liquid, Taylor dispersion method

COC(=O)[C@@H](N)Cc1cnc[nH]1.Cl.Cl [methyl L-histidinate dihydrochloride] + O
Settings	binary diffusion coefficient [m2/s]
c1 = 0.001	1.05e-09
c1 = 0.005	1.01e-09
c1 = 0.01	9.82e-10
c1 = 0.02	9.6e-10
c1 = 0.05	9.21e-10
c1 = 0.1	8.61e-10
